What was measured:
[1] = target: human CB1 receptors (Homo sapiens (Human), UniProt P21554); assay: functional cAMP assay, CB1; type: cell-based; details: functional cAMP assay, CHO cells expressing human CB1; read-out: human CB1 EC50
Description: (§1) CHO cells expressing human CB1 or CB2 receptors are seeded 17-24 hours prior to the experiment 50.000 cells per well in a black 96 well plate with flat clear bottom (Corning Costar #3904) in DMEM (Invitrogen No. 31331), 1×HT supplement, with 10% fetal calf serum and incubated at 5% CO2 and 37° C. in a humidified incubator. The growth medium was exchanged with Krebs Ringer Bicarbonate buffer with 1 mM IBMX and incubated at 30° C. for 30 min. Compounds were added to a final assay volume of 100 μl and incubated for 30 min at 30° C. Using the cAMP-Nano-TRF detection kit the assay (Roche Diagnostics) was stopped by the addition of 50 μl lysis reagent (Tris, NaCl, 1.5% Triton X100, 2.5% NP40, 10% NaN3) and 50 μl detection solutions (20 μM mAb Alexa700-cAMP 1:1, and 48 μM Ruthenium-2-AHA-cAMP) and shaken for 2 h at room temperature. The time-resolved energy transfer is measured by a TRF reader (Evotec Technologies GmbH), equipped with a ND:YAG laser as excitation source. The plate is measured twice with the excitation at 355 nm and at the emission with a delay of 100 ns and a gate of 100 ns, total exposure time 10s at 730 (bandwidth 30 nm) or 645 nm (bandwidth 75 nm), respectively. The FRET signal is calculated as follows: FRET=T730-Alexa730-P(T645-B645) with P=Ru730-B730/Ru645-B645, where T730 is the test well measured at […], T645 is the test well measured at 645 nm, B730 and B645 are the buffer controls at 730 nm and 645 nm, respectively. cAMP content is determined from the function of a standard curve spanning from 10 μM to 0.13 nM cAMP.
(§2) EC50 values were determined using Activity Base analysis (ID Business Solution, Limited). The EC50 values for a wide range of cannabinoid agonists generated from this assay were in agreement with the values published in the scientific literature.

[2] = target: human CB2 receptors (Homo sapiens (Human), UniProt P34972); assay: functional cAMP assay, CB2; type: cell-based; details: functional cAMP assay, CHO cells expressing human CB2; read-out: human CB2 EC50
Description: as §1, §2

Chain of human CB1 receptors (P21554 whole entry): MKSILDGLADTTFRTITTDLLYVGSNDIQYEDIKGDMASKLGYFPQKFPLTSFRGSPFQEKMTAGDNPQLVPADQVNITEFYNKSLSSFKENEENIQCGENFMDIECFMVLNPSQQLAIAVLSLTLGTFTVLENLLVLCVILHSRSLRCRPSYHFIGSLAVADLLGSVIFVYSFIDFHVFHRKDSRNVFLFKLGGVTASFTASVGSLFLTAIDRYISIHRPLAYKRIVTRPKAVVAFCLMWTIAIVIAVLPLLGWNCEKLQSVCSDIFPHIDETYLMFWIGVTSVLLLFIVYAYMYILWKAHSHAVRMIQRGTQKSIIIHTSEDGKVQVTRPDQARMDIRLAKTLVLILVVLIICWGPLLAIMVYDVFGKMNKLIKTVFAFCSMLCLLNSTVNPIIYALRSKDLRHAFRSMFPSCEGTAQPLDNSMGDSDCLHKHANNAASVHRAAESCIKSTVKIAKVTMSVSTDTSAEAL
Chain of human CB2 receptors (P34972 whole entry): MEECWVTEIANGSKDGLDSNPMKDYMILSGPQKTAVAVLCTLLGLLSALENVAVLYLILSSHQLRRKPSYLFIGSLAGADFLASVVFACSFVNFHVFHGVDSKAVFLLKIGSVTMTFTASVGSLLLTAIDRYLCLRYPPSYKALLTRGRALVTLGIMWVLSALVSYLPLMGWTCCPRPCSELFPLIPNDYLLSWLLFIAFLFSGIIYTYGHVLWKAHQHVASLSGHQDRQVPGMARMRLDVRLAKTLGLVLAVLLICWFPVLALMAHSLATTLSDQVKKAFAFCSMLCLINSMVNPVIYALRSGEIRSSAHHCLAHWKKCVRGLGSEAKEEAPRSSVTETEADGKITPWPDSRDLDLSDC

SMILES | EC50 [1] [nM] | EC50 [2] [nM]
NC(=O)[C@H](Cc1ccccc1)NC(=O)c1cnc(C2CC2)c(OCC2CC2)n1 [Example 37, 5-Cyclopropyl-6-cyclopropylmethoxy-pyrazine-2-carboxylic acid ((S)-1-carbamoyl-2-phenyl-ethyl)-amide] | 1640 | 108
NC(=O)[C@H](Cc1ccccc1)NC(=O)c1cnc(N2CC(F)(F)C2)c(OCC2CC2)n1 [Example 38, 6-Cyclopropylmethoxy-5-(3,3-difluoro-azetidin-1-yl)-pyrazine-2-carboxylic acid ((S)-1-carbamoyl-2-phenyl-ethyl)-amide] | > 10000 | 44.4
NC(=O)[C@H](CC1CC1)NC(=O)c1cnc(N2CC(F)(F)C2)c(OCC2CC2)n1 [Example 39, 6-Cyclopropylmethoxy-5-(3,3-difluoro-azetidin-1-yl)-pyrazine-2-carboxylic acid ((S)-1-carbamoyl-2-cyclopropyl-ethyl)-amide] | > 10000 | 11
CC(C)(C)[C@H](NC(=O)c1cnc(C2CC2)c(OCC2CC2)n1)C(=O)O [Example 44, (S)-2-[(5-Cyclopropyl-6-cyclopropylmethoxy-pyrazine-2-carbonyl)-amino]-3,3-dimethyl-butyric acid] | > 10000 | 442
Cc1nc(C(C)(C)NC(=O)c2cnc(C3CC3)c(OCC3CC3)n2)no1 [Example 45, 5-Cyclopropyl-6-cyclopropylmethoxy-pyrazine-2-carboxylic acid [1-methyl-1-(5-methyl-[1,2,4]oxadiazol-3-yl)-ethyl]-amide] | > 10000 | 51.4
C[C@H](NC(=O)c1cnc(C2CC2)c(OCC2CC2)n1)c1ccccn1 [Example 46, 5-Cyclopropyl-6-cyclopropylmethoxy-pyrazine-2-carboxylic acid ((S)-1-pyridin-2-yl-ethyl)-amide] | > 10000 | 291
O=C(N[C@H](c1ccccn1)C(F)(F)F)c1cnc(N2CC(F)(F)C2)c(OCC2CC2)n1 [Example 47, 6-Cyclopropylmethoxy-5-(3,3-difluoro-azetidin-1-yl)-pyrazine-2-carboxylic acid ((R)-2,2,2-trifluoro-1-pyridin-2-yl-ethyl)-amide] | > 10000 | 72.9
O=C(N[C@@H](c1ccccn1)C(F)(F)F)c1cnc(N2CC(F)(F)C2)c(OCC2CC2)n1 [Example 48, 6-Cyclopropylmethoxy-5-(3,3-difluoro-azetidin-1-yl)-pyrazine-2-carboxylic acid ((S)-2,2,2-trifluoro-1-pyridin-2-yl-ethyl)-amide] | > 10000 | 24.4
O=C(N[C@@H](c1ccccn1)C(F)(F)F)c1cnc(C2CC2)c(OCC2CC2)n1 [Example 49, 5-Cyclopropyl-6-cyclopropylmethoxy-pyrazine-2-carboxylic acid ((S)-2,2,2-trifluoro-1-pyridin-2-yl-ethyl)-amide] | > 10000 | 107
CCC(CC)(NC(=O)c1cnc(N2CC(F)(F)C2)c(OCC2CC2)n1)C(=O)NC [Example 50, 6-Cyclopropylmethoxy-5-(3,3-difluoro-azetidin-1-yl)-pyrazine-2-carboxylic acid (1-ethyl-1-methylcarbamoyl-propyl)-amide] | > 10000 | 7.4
CC(C)[C@](C)(CO)NC(=O)c1cnc(C2CC2)c(OCC2CC2)n1 [Example 51, 5-Cyclopropyl-6-cyclopropylmethoxy-pyrazine-2-carboxylic acid ((R)-1-hydroxymethyl-1,2-dimethyl-propyl)-amide] | > 10000 | 137
CC(C)[C@@](C)(CO)NC(=O)c1cnc(C2CC2)c(OCC2CC2)n1 [Example 52, 5-Cyclopropyl-6-cyclopropylmethoxy-pyrazine-2-carboxylic acid ((S)-1-hydroxymethyl-1,2-dimethyl-propyl)-amide] | > 10000 | 36.9
CCC(CC)(NC(=O)c1cnc(C2CC2)c(OCC2CC2)n1)C(=O)NC [Example 53, 5-Cyclopropyl-6-cyclopropylmethoxy-pyrazine-2-carboxylic acid (1-ethyl-1-methylcarbamoyl-propyl)-amide] | > 10000 | 15.1
Cc1csc(C(C)(C)NC(=O)c2cnc(C3CC3)c(OCC3CC3)n2)n1 [Example 54, 5-Cyclopropyl-6-cyclopropylmethoxy-pyrazine-2-carboxylic acid [1-methyl-1-(4-methyl-thiazol-2-yl)-ethyl]-amide] | > 10000 | 188
Cc1csc(C(C)(C)NC(=O)c2cnc(N3CC(F)(F)C3)c(OCC3CC3)n2)n1 [Example 55, 6-Cyclopropylmethoxy-5-(3,3-difluoro-azetidin-1-yl)-pyrazine-2-carboxylic acid [1-methyl-1-(4-methyl-thiazol-2-yl)-ethyl]-amide] | > 10000 | 22
Cc1nc([C@@H](C)NC(=O)c2cnc(N3CC(F)(F)C3)c(OCC3CC3)n2)no1 [Example 56, 6-Cyclopropylmethoxy-5-(3,3-difluoro-azetidin-1-yl)-pyrazine-2-carboxylic acid [(R)-1-(5-methyl-[1,2,4]oxadiazol-3-yl)-ethyl]amide] | > 10000 | 72.5
CC(C)(NC(=O)c1cnc(C2CC2)c(OCC2CC2)n1)c1noc(N)n1 [Example 57, 5-Cyclopropyl-6-cyclopropylmethoxy-pyrazine-2-carboxylic acid [1-(5-amino-[1,2,4]oxadiazol-3-yl)-1-methyl-ethyl]-amide] | > 10000 | 221
CC(C)(NC(=O)c1cnc(N2CC(F)(F)C2)c(OCC2CC2)n1)c1noc(N)n1 [Example 58, 6-Cyclopropylmethoxy-5-(3,3-difluoro-azetidin-1-yl)-pyrazine-2-carboxylic acid [1-(5-amino-[1,2,4]oxadiazol-3-yl)-1-methyl-ethyl]-amide] | > 10000 | 178
C[C@@](NC(=O)c1cnc(N2CC(F)(F)C2)c(OCC2CC2)n1)(C(N)=O)c1ccccc1 [Example 59, 6-Cyclopropylmethoxy-5-(3,3-difluoro-azetidin-1-yl)-pyrazine-2-carboxylic acid ((S)-1-carbamoyl-1-phenyl-ethyl)-amide] | > 10000 | 49.2
Cc1nc(C(C)(CC2CC2)NC(=O)c2cnc(N3CC(F)(F)C3)c(OCC3CC3)n2)no1 (stereo not shown) [Example 60, 6-Cyclopropylmethoxy-5-(3,3-difluoro-azetidin-1-yl)-pyrazine-2-carboxylic acid [2-cyclopropyl-1-methyl-1-(5-methyl-[1,2,4]oxadiazol-3-yl)-ethyl]-amide] | > 10000 | 14.6
Cc1nc(C(C)(NC(=O)c2cnc(N3CC(F)(F)C3)c(OCC3CC3)n2)C2CC2)no1 (stereo not shown) [Example 61, 6-Cyclopropylmethoxy-5-(3,3-difluoro-azetidin-1-yl)-pyrazine-2-carboxylic acid [1-cyclopropyl-1-(5-methyl-[1,2,4]oxadiazol-3-yl)-ethyl]-amide] | > 10000 | 17.9
Cc1nc(C(C)(NC(=O)c2cnc(C3CC3)c(OCC3CC3)n2)C2CC2)no1 (stereo not shown) [Example 62, 5-Cyclopropyl-6-cyclopropylmethoxy-pyrazine-2-carboxylic acid [1-cyclopropyl-1-(5-methyl-[1,2,4]oxadiazol-3-yl)-ethyl]-amide] | 1650 | 22.8
COC(=O)C(C)(NC(=O)c1cnc(N2CC(F)(F)C2)c(OCC2CC2)n1)C1CC1 (stereo not shown) [Example 80, 2-Cyclopropyl-2-{[6-cyclopropylmethoxy-5-(3,3-difluoro-azetidin-1-yl)-pyrazine-2-carbonyl]-amino}-propionic acid methyl ester] | > 10000 | 0.7
NC(=O)CC1(NC(=O)c2cnc(C3CC3)c(OCC3CC3)n2)COC1 [Example 84, 5-Cyclopropyl-6-cyclopropylmethoxy-pyrazine-2-carboxylic acid (3-carbamoylmethyl-oxetan-3-yl)-amide] | > 10000 | 14.6
NC(=O)CC1(NC(=O)c2cnc(N3CC(F)(F)C3)c(OCC3CC3)n2)COC1 [Example 85, 6-Cyclopropylmethoxy-5-(3,3-difluoro-azetidin-1-yl)-pyrazine-2-carboxylic acid (3-carbamoylmethyl-oxetan-3-yl)-amide] | > 10000 | 5.8
Cc1nc([C@@](C)(NC(=O)c2cnc(N3CC(F)(F)C3)c(OCC3CC3)n2)C2CC2)no1 [Example 86, (+)-6-Cyclopropylmethoxy-5-(3,3-difluoro-azetidin-1-yl)-pyrazine-2-carboxylic acid [1-cyclopropyl-1-(5-methyl-[1,2,4]oxadiazol-3-yl)-ethyl]-amide] | > 10000 | 23.7

Reference: US9403808B2, “Pyrazine derivatives” (Hoffmann-La Roche Inc., priority 2011, dated 2016)
